Measured values as given in US9186296B2, “Containers for compositions comprising meloxicam” (Boehringer Ingelheim Vetmedica GmbH, priority 2009, dated 2015).

Assay: long-term stability programme according to VICH guideline 3 (storage in bottles of different materials)
Type: physicochemical
Settings: PP bottles compared with bottles made of HDPE or LDPE; FIG. 4, 5, 6
Procedure: The preferred pharmaceutical composition filled into containers made of the different types of packaging has been subject to a long-term stability programme according to the conditions as described in the VICH guideline 3. The conditions used for storage were 25° C./60% r.h. (r.h.=relative humidity), 30° C./70% r.h., and 40° C. /75% r.h.
The stability studies of a 0.5 mg/ml suspension were carried out with 3 ml and 4 ml of the suspension being filled into 5 ml HDPE bottles. […] This has not been observed before for any of the suspensions (1.5 mg/ml or 0.5 mg/ml) or the different fill volumes. The shelf-life of the 1.5 mg/ml suspension with a 10 ml fill (in a 25 ml bottle) is for example at least 18 months. An acceptable shelf-life for commercial use of the product with a volume size for the treatment of cats for a few days (up to five days) cannot be established by using HDPE as the container material.
Thus, polypropylene is a suitable material for holding small volumes of oral suspensions comprising meloxicam and sodium benzoate as preservative. The suitability of PP is further shown by comparison with the unsuitable negative reference containers made of PET and PC, see FIGS. 1, 3, and 4.

O=C([O-])c1ccccc1.[Na+] [sodium benzoate]
decrease of sodium benzoate content over 18 months or at least 18 months: significantly lower in PP bottles than in bottles made of either HDPE or LDPE
